Test results taken from PMC4158420, “Crenactin from Pyrobaculum calidifontis is closely related to actin in structure and forms steep helical filaments” (Febs Letters, 2014).

Target: T1, crenactin (Pc crenactin) (Pyrobaculum calidifontis, UniProt A3MWN5)
T1 construct: gene cren-1; full length 1-432, codon-optimised, expressed in E. coli as His6-SUMO fusion, tag cleaved by SENP1 with no residues added or removed; helical filament in crystal
Test: X-ray crystallography, […] Å
Format: binding
Conditions: crystals from 100 mM phosphate/citrate pH 4.2, 200 mM lithium sulfate, 20% PEG 1000; one ADP per subunit, 0 Mg; nucleotide cleft between domains I and II

T1 sequence (A3MWN5 whole entry, the tested form may be a part): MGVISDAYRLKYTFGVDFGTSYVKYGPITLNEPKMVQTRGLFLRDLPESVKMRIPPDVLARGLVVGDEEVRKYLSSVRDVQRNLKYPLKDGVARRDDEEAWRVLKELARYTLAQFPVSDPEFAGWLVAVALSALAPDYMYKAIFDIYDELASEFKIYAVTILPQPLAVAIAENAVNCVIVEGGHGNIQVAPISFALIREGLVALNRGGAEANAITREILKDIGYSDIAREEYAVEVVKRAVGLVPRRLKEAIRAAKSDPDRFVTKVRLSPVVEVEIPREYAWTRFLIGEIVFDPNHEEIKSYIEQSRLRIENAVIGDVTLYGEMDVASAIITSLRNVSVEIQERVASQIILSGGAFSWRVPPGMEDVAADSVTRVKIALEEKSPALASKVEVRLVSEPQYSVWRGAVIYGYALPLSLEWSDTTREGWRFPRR

Structure (SMILES): Nc1ncnc2c1ncn2[C@@H]1O[C@H](COP(=O)(O)OP(=O)(O)O)[C@@H](O)[C@H]1O [ADP]
- X-ray crystallography, 3.2 Å: one molecule of ADP was located and added in each crenactin subunit
